Consider 19 molecules from PubChem BioAssay (NCI).

Among the test systems are HOP-62 NSCLC; OVCAR-4 ovarian; SK-MEL-5 melanoma; SN12C renal; RPMI-8226 leukemia; MCF7 breast; EKVX NSCLC; MOLT-4 leukemia; HCT-116 colon; ACHN renal.
Common to all, as to test: inhibition of tumour cell growth, NCI panel, 48 h

Several values for one entry are separate records, joined by “and”; a condition that tells them apart may be missing. Equal values may be shown once.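 Method: 48-hour compound exposure of cells in 96-well plates, five concentrations, linear interpolation of endpoints. GI50: concentration for 50% inhibition of growth. TGI is the concentration that stops growth completely.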

As for `CC1=NN(C(=O)c2ccc(C)cc2)C(=O)C1N=Nc1ccccc1C(=O)O` (stereo not given), the TGI in the experiment on HOP-62 NSCLC, in the experiment with OVCAR-4 ovarian, in the experiment with SK-MEL-5 melanoma, with SN12C renal, in the experiment on RPMI-8226 leukemia and with MCF7 breast was greater than 100 µM throughout. The TGI with EKVX NSCLC, with MOLT-4 leukemia and with HCT-116 colon was greater than 100 µM each time.

For the molecule `CCOc1cc(/C=C/C(=O)CC(=O)/C=C/c2ccc(OC(=O)CNCCN(CC)CC)c(OCC)c2)ccc1OC(=O)CNCCN(CC)CC`, the GI50 with HOP-62 NSCLC is 2.5 µM; in the experiment on OVCAR-4 ovarian, 4.35 µM; in the experiment on SK-MEL-5 melanoma it was 1.55 µM; in the experiment on SN12C renal it was 2 µM; in the experiment on RPMI-8226 leukemia, 0.45 µM; with MCF7 breast it was 0.782 µM. The GI50 in the experiment on ACHN renal is 1.92 µM; in the experiment on EKVX NSCLC, 1.5 µM; in the experiment on MOLT-4 leukemia it was 0.531 µM; in the experiment on HCT-116 colon it was 1.2 µM. In addition, the TGI in the experiment with HOP-62 NSCLC was 6.06 µM; in the experiment on OVCAR-4 ovarian, greater than 100 µM; in the experiment with SK-MEL-5 melanoma, 3.17 µM; in the experiment with SN12C renal, 6.25 µM; in the experiment with RPMI-8226 leukemia, 2.1 µM; with MCF7 breast, 10.5 µM. Also, the TGI worked out at 3.54 µM with ACHN renal, 3.58 µM in the experiment on EKVX NSCLC, 2.72 µM in the experiment with MOLT-4 leukemia and 2.61 µM in the experiment on HCT-116 colon.

For `CCN(CC)C(=S)SSCCO`, the GI50 is greater than 100 µM with HOP-62 NSCLC; 14.7 µM in the experiment with OVCAR-4 ovarian; 16.5 µM in the experiment with SK-MEL-5 melanoma; 17.4 µM with SN12C renal; 14.4 µM in the experiment on RPMI-8226 leukemia; 18.7 µM in the experiment on ACHN renal. For the same molecule, the GI50 is 20.1 µM in the experiment with EKVX NSCLC, 4.7 µM in the experiment on MOLT-4 leukemia and 14.6 µM in the experiment on HCT-116 colon. Further, the TGI in the experiment with HOP-62 NSCLC was greater than 100 µM; in the experiment on OVCAR-4 ovarian it was 27.9 µM; in the experiment on SK-MEL-5 melanoma, 53.1 µM; in the experiment on SN12C renal it was 32.2 µM; in the experiment with RPMI-8226 leukemia, 39.5 µM; in the experiment with ACHN renal, 35.8 µM. The TGI with EKVX NSCLC worked out at 39.7 µM; with MOLT-4 leukemia, 21.7 µM; in the experiment on HCT-116 colon, 27.7 µM.

For the molecule `Cc1ccc2oc3c(ccc(=O)n3C)c(=O)c2c1`, the TGI with HOP-62 NSCLC, in the experiment with OVCAR-4 ovarian, in the experiment with SK-MEL-5 melanoma, with SN12C renal, in the experiment on MCF7 breast and in the experiment with ACHN renal was greater than 100 µM in each case. For the same molecule, the TGI in the experiment with EKVX NSCLC and in the experiment on HCT-116 colon was greater than 100 µM in each case.

As to `CO/C(=N\N=C(/c1ccccc1)C(F)(F)F)c1ccncc1`, the TGI in the experiment with HOP-62 NSCLC was greater than 100 µM; in the experiment on OVCAR-4 ovarian, greater than 100 µM; with SK-MEL-5 melanoma, 57 µM; in the experiment on SN12C renal, greater than 100 µM; in the experiment with RPMI-8226 leukemia it was greater than 100 µM; in the experiment on MCF7 breast, greater than 100 µM. The TGI with MOLT-4 leukemia and in the experiment on HCT-116 colon was greater than 100 µM each time.

In the case of `N/C(=N\N=C/c1cc([N+](=O)[O-])cc([N+](=O)[O-])c1O)NO`, the TGI in the experiment with HOP-62 NSCLC is greater than 39.1 µM; in the experiment on OVCAR-4 ovarian, greater than 100 µM; with SK-MEL-5 melanoma, greater than 38.4 µM; in the experiment on SN12C renal, greater than 100 µM; in the experiment on RPMI-8226 leukemia it was greater than 100 µM; in the experiment with MCF7 breast, greater than 100 µM. Besides, the TGI in the experiment with EKVX NSCLC, in the experiment on MOLT-4 leukemia and with HCT-116 colon was greater than 100 µM each time.

Regarding `CC(C)(CC1(C)NC(=O)NC1=O)OCc1ccccc1` (stereo not given), the TGI in the experiment on HOP-62 NSCLC, in the experiment on OVCAR-4 ovarian, in the experiment with SK-MEL-5 melanoma, in the experiment on SN12C renal, with RPMI-8226 leukemia and in the experiment with MCF7 breast was greater than 100 µM each time. Moreover, the TGI in the experiment on ACHN renal, in the experiment with EKVX NSCLC and with HCT-116 colon was greater than 100 µM in each case.

In the case of `Fc1ccc(C(OCCN2CC3CC2CN3)c2ccc(F)cc2)cc1` (stereo not given), the TGI in the experiment with HOP-62 NSCLC was greater than 100 µM; with OVCAR-4 ovarian, greater than 100 µM; with SK-MEL-5 melanoma, 30.9 µM; in the experiment on RPMI-8226 leukemia, 71.1 µM; in the experiment on MCF7 breast, greater than 100 µM; with ACHN renal, greater than 100 µM. The same molecule yielded a TGI with MOLT-4 leukemia greater than 100 µM.

In the case of `CCOC(=O)[C@H]1Nc2c(cccc2[N+](=O)[O-])C2c3ccccc3CC21` (stereo not given in full), the TGI in the experiment with HOP-62 NSCLC, in the experiment on OVCAR-4 ovarian, in the experiment on SK-MEL-5 melanoma, with SN12C renal, with RPMI-8226 leukemia and in the experiment with ACHN renal was greater than 100 µM throughout. Also, the TGI in the experiment with MOLT-4 leukemia and with HCT-116 colon was greater than 100 µM in each case.

As to `CC1CCN(c2cc(-c3cc4ccccc4o3)oc(=O)c2C#N)CC1`, the TGI with OVCAR-4 ovarian, with SK-MEL-5 melanoma, with SN12C renal, in the experiment on RPMI-8226 leukemia, in the experiment with ACHN renal and in the experiment with EKVX NSCLC was greater than 100 µM in each case. The TGI in the experiment with MOLT-4 leukemia and with HCT-116 colon was greater than 100 µM in each case.

As for `O=c1[nH]c(=S)[nH]c2c(C3OC(CO)C(O)C3O)nsc12` (stereo not given), the TGI in the experiment on HOP-62 NSCLC, in the experiment on OVCAR-4 ovarian, in the experiment with SK-MEL-5 melanoma, with SN12C renal, in the experiment on MCF7 breast and with EKVX NSCLC was greater than 100 µM each time. Further, the TGI in the experiment on MOLT-4 leukemia and in the experiment with HCT-116 colon was greater than 100 µM throughout.

On to `c1csc(C(NC2=NCCO2)C2CC2)c1` (stereo not given), for which the TGI in the experiment with HOP-62 NSCLC, in the experiment with OVCAR-4 ovarian, in the experiment with SK-MEL-5 melanoma, in the experiment on SN12C renal, in the experiment on RPMI-8226 leukemia and in the experiment with MCF7 breast was greater than 100 µM in each case. Also, the TGI in the experiment on ACHN renal, with EKVX NSCLC, in the experiment on MOLT-4 leukemia and with HCT-116 colon was greater than 100 µM throughout.

As for `COc1cccc(/C=N/[N-]C(N)=O)c1[O-].[OH3+].[Pd+2]`, the TGI with HOP-62 NSCLC, with OVCAR-4 ovarian, in the experiment on SK-MEL-5 melanoma, in the experiment with SN12C renal, with RPMI-8226 leukemia and with ACHN renal was greater than 100 µM each time. For the same molecule, the TGI in the experiment on EKVX NSCLC, in the experiment on MOLT-4 leukemia and in the experiment with HCT-116 colon was greater than 100 µM in each case.

On to `CCN1C(=O)N2C(OC)c3ccccc3C(Br)C2(OC)C1=O` (stereo not given), for which the TGI in the experiment on HOP-62 NSCLC, in the experiment with OVCAR-4 ovarian, in the experiment with SK-MEL-5 melanoma, in the experiment with SN12C renal, in the experiment with RPMI-8226 leukemia and in the experiment on MOLT-4 leukemia was greater than 100 µM throughout.

Regarding `CC(=O)Nc1cc(/C=C\C(=O)N2CC(CCl)c3c2cc(N)c2ccccc32)n(C)n1` (stereo not given), the GI50 in the experiment with OVCAR-4 ovarian was 0.0216 µM. Moreover, the TGI in the experiment with RPMI-8226 leukemia is 0.0577 µM and 0.0242 µM; in the experiment with MCF7 breast it was greater than 100 µM; in the experiment with MOLT-4 leukemia it was 0.0357 µM.

On to `Clc1ccc(-c2nnc(-c3nsc4ccccc34)o2)cc1`, for which the TGI was 33.6 µM in the experiment with HOP-62 NSCLC; 34.5 µM in the experiment on OVCAR-4 ovarian; greater than 100 µM in the experiment with SK-MEL-5 melanoma; greater than 100 µM in the experiment on SN12C renal; greater than 100 µM in the experiment on RPMI-8226 leukemia; greater than 100 µM in the experiment on ACHN renal. The TGI in the experiment with EKVX NSCLC was greater than 100 µM; in the experiment on HCT-116 colon, 42.9 µM.

In the case of `N=C(N)c1ccc(N=Nc2c(O)ccc3cc(O)ccc23)cc1`, the TGI in the experiment with HOP-62 NSCLC, in the experiment with OVCAR-4 ovarian, with SK-MEL-5 melanoma, in the experiment with RPMI-8226 leukemia, in the experiment on MCF7 breast and with ACHN renal was greater than 100 µM each time. For the same molecule, the TGI with EKVX NSCLC, with MOLT-4 leukemia and with HCT-116 colon was greater than 100 µM throughout.

On to `O=S(=O)(c1ccc2ccccc2c1)N1CCN(S(=O)(=O)c2ccc3ccccc3c2)CC1`, for which the TGI with HOP-62 NSCLC, in the experiment on OVCAR-4 ovarian, in the experiment with SK-MEL-5 melanoma, with SN12C renal, in the experiment on RPMI-8226 leukemia and in the experiment with MCF7 breast was greater than 100 µM throughout. Further, the TGI with ACHN renal, in the experiment on EKVX NSCLC and with HCT-116 colon was greater than 100 µM each time.

For the molecule `O=C(/C=C\c1ccc(/C=C/C(=O)Nc2cccc(C3=NCCCN3)c2)cc1)Nc1cccc(C2=NCCCN2)c1`, the TGI in the experiment on HOP-62 NSCLC is greater than 100 µM; in the experiment on OVCAR-4 ovarian it was greater than 100 µM; in the experiment with SK-MEL-5 melanoma it was greater than 83.5 µM; in the experiment with SN12C renal, greater than 100 µM; in the experiment with RPMI-8226 leukemia, 76.3 µM; in the experiment with MCF7 breast, greater than 100 µM. The TGI in the experiment on MOLT-4 leukemia and in the experiment on HCT-116 colon was greater than 100 µM each time.
